O=C(O)CNC(=O)c1ccccc1
solubility (mole fraction)
Details	in 1,4-dioxane	in DMF	in THF	in chloroform	in ethanol	in methanol	in n-butanol	in n-propanol
298.15 K	0.00729	0.206	0.0142	0.00021	0.0148	0.0179	0.00776	0.00884
303.15 K	0.0084	0.213	0.0167	0.00035	0.0162	0.0197	0.00908	0.0108
308.15 K	0.0109	0.219	0.018	0.00052	0.0194	0.023	0.0106	0.0121
313.15 K	0.014	0.226	0.0209	0.0007	0.024	0.0275	0.0128	0.0151
318.15 K	0.0164	0.232	0.0228	0.00088	0.029	0.0323	0.0151	0.0174
323.15 K	0.0182	0.239	0.026	0.00102	0.0342	0.0378	0.0178	0.0201
328.15 K	0.0209	0.246	0.0291	0.0011	0.0396	0.0448	0.0205	0.0232
